What follows are molecules tested against T1, HIV integrase (Human immunodeficiency virus type 1 group M subtype B, UniProt P12497, F1332H) (assay: Determination of enzyme (HIV integrase) inhibitory activity (strand transfer, microtiter plate, absorbance at 450 nm)). Conditions: recombinant HIV integrase (F185H) expressed in E. coli; donor DNA on streptavidin plate, digoxigenin target DNA; 37° C.
T1 construct: HIV integrase full length gene; made in house; host or cells: Escherichia coli BL21(DE3)
Type: biochemical, HIV (Human Immunodeficiency Virus (type 1))
Work on `CN(C)c1cc2c(cc1Cc1cccc(Cl)c1F)c(=O)c(C(=O)O)cn2CCO` [Example 3-62, 6-(3-Chloro-2-fluorobenzyl)-7-dimethylamino-1-(2-hydroxyethyl)-4-oxo-1,4-dihydroquinoline-3-carboxylic acid] yielded an IC50 of 27 nM.
`O=C(O)c1cn(CCO)c2cc(OCC3CCCCC3)c(Cc3cccc(Cl)c3F)cc2c1=O` [Example 3-63, 6-(3-Chloro-2-fluorobenzyl)-7-cyclohexylmethoxy-1-(2-hydroxyethyl)-4-oxo-1,4-dihydroquinoline-3-carboxylic acid] was tested, and the IC50 was 17 nM.
With `CCN(CC)c1cc(Cc2cccc(Cl)c2F)cc2c(=O)c(C(=O)O)cn(CCO)c12` [Example 3-64, 6-(3-Chloro-2-fluorobenzyl)-8-diethylamino-1-(2-hydroxyethyl)-4-oxo-1,4-dihydroquinoline-3-carboxylic acid] the IC50 was 18 nM.
For `CNc1cc2c(cc1Cc1cccc(Cl)c1F)c(=O)c(C(=O)O)cn2CCO` [Example 3-65, 6-(3-Chloro-2-fluorobenzyl)-7-methylamino-1-(2-hydroxyethyl)-4-oxo-1,4-dihydroquinoline-3-carboxylic acid], the IC50 was 15 nM.
`O=C(O)c1cn(CCO)c2cc(N3CCCC3)c(Cc3cccc(Cl)c3F)cc2c1=O` [Example 3-66, 6-(3-Chloro-2-fluorobenzyl)-1-(2-hydroxyethyl)-4-oxo-7-pyrrolidin-1-yl-1,4-dihydroquinoline-3-carboxylic acid] was tested, and the IC50 was 48 nM.
In the case of `CCOc1cc(Cc2cccc(Cl)c2F)cc2c(=O)c(C(=O)O)cn([C@@H](C)CO)c12` [Example 3-67, (S)-6-(3-Chloro-2-fluorobenzyl)-8-ethoxy-1-(2-hydroxy-1-methylethyl)-4-oxo-1,4-dihydroquinoline-3-carboxylic acid], the IC50 is reported as 6.4 nM.
Work on `O=C(O)c1cn(CCO)c2c(OCC3CCCCC3)cc(Cc3cccc(Cl)c3F)cc2c1=O` [Example 3-69, 6-(3-Chloro-2-fluorobenzyl)-8-cyclohexylmethoxy-1-(2-hydroxyethyl)-4-oxo-1,4-dihydroquinoline-3-carboxylic acid] yielded an IC50 of 4.3 nM.
`CC[C@@H](CO)n1cc(C(=O)O)c(=O)c2cc(Cc3cccc(Cl)c3F)c(OC(C)C)cc21` [Example 3-72, (S)-6-(3-Chloro-2-fluorobenzyl)-1-[1-(hydroxymethyl)propyl]-7-isopropyloxy-4-oxo-1,4-dihydroquinoline-3-carboxylic acid] was tested, and the IC50 was 3.8 nM.
Work on `CC[C@@H](CO)n1cc(C(=O)O)c(=O)c2cc(Cc3cccc(Cl)c3F)c(OC)cc21` [Example 3-73, (S)-6-(3-Chloro-2-fluorobenzyl)-1-[1-(hydroxymethyl)propyl]-7-methoxy-4-oxo-1,4-dihydroquinoline-3-carboxylic acid] yielded an IC50 of 3.3 nM.
Work on `CC(C)Oc1cc2c(cc1Cc1cccc(Cl)c1F)c(=O)c(C(=O)O)cn2[C@@H](C)CO` [Example 3-74] yielded an IC50 of 4.9 nM.
Molecule `O=C(O)c1cn(CCO)c2cc(OCCO)c(Cc3cccc(Cl)c3F)cc2c1=O` [Example 3-76, 6-(3-Chloro-2-fluorobenzyl)-1-(2-hydroxyethyl)-7-(2-hydroxyethyloxy)-4-oxo-1,4-dihydroquinoline-3-carboxylic acid] has an IC50 of 8.5 nM.
Molecule `O=C(O)c1cn(CCO)c2cc(OCCCO)c(Cc3cccc(Cl)c3F)cc2c1=O` [Example 3-77, 6-(3-Chloro-2-fluorobenzyl)-1-(2-hydroxyethyl)-1-7-(3-hydroxypropyloxy)-4-oxo-1,4-dihydroquinoline-3-carboxylic acid] has an IC50 of 8.9 nM.
`O=C(O)c1cn(CCO)c2c(NCCO)cc(Cc3cccc(Cl)c3F)cc2c1=O` [Example 3-78, 6-(3-Chloro-2-fluorobenzyl)-1-(2-hydroxyethyl)-8-(2-hydroxyethylamino)-4-oxo-1,4-dihydroquinoline-3-carboxylic acid] was tested, and the IC50 was 16 nM.
For `CC[C@@H](CO)n1cc(C(=O)O)c(=O)c2cc(Cc3cccc(Cl)c3F)cc(OC)c21` [Example 3-79, (S)-6-(3-Chloro-2-fluorobenzyl)-1-[1-(hydroxymethyl)propyl]-8-methoxy-4-oxo-1,4-dihydroquinoline-3-carboxylic acid], the IC50 was 6.7 nM.
Work on `C[C@@H](CO)n1cc(C(=O)O)c(=O)c2cc(Cc3cccc(Cl)c3F)cc(N(C)C)c21` [Example 3-80, (S)-6-(3-Chloro-2-fluorobenzyl)-8-dimethylamino-1-(2-hydroxy-1-methylethyl)-4-oxo-1,4-dihydroquinoline-3-carboxylic acid] yielded an IC50 of 8.8 nM.
`O=C(O)c1cn(CCO)c2ncc(Cc3cccc(Cl)c3Cl)cc2c1=O` [Example 3-86] showed an IC50 of 140 nM.
For `CS(=O)(=O)c1ccc(Cl)c(Cc2ccc3c(c2)c(=O)c(C(=O)O)cn3CCO)c1` [Example 4-1, 6-(2-Chloro-5-methanesulfonylbenzyl)-1-(2-hydroxyethyl)-4-oxo-1,4-dihydroquinoline-3-carboxylic acid], the IC50 was 860 nM.
`CCc1ccccc1Cc1ccc2c(c1)c(=O)c(C(=O)O)cn2CCO` [Example 4-4, 6-(2-Ethylbenzyl)-1-(2-hydroxyethyl)-4-oxo-1,4-dihydroquinoline-3-carboxylic acid] gave an IC50 of 550 nM.
For `O=C(O)c1cn(CCO)c2ccc(Cc3cc(F)ccc3Cl)cc2c1=O` [Example 4-6, 6-(2-Chloro-5-fluorobenzyl)-1-(2-hydroxyethyl)-4-oxo-1,4-dihydroquinoline-3-carboxylic acid], the IC50 was 460 nM.
For `O=C(O)c1cn(CCO)c2ccc(Cc3cc(Br)ccc3Cl)cc2c1=O` [Example 4-7, 6-(5-Bromo-2-chlorobenzyl)-1-(2-hydroxyethyl)-4-oxo-1,4-dihydroquinoline-3-carboxylic acid], the IC50 was 130 nM.
Work on `O=C(O)c1cn(CCO)c2cc(F)c(Cc3cccc(Cl)c3Cl)cc2c1=O` [Example 4-9, 6-(2,3-Dichlorobenzyl)-7-fluoro-1-(2-hydroxyethyl)-4-oxo-1,4-dihydroquinoline-3-carboxylic acid] yielded an IC50 of 21 nM.
`O=C(O)c1cn(CCO)c2ccc(Cc3cc(O)ccc3Cl)cc2c1=O` [Example 4-11, 6-(2-Chloro-5-hydroxybenzyl)-1-(2-hydroxyethyl)-4-oxo-1,4-dihydroquinoline-3-carboxylic acid] was tested, and the IC50 was 220 nM.
Work on `O=C(O)c1cn(CCO)c2ccc(Cc3cccc(Cl)c3Cl)c(F)c2c1=O` [Example 4-12, 6-(2,3-Dichlorobenzyl)-5-fluoro-1-(2-hydroxyethyl)-4-oxo-1,4-dihydroquinoline-3-carboxylic acid] yielded an IC50 of 65 nM.
With `CCOc1ccccc1Cc1ccc2c(c1)c(=O)c(C(=O)O)cn2CCO` [Example 4-13, 6-(2-Ethoxybenzyl)-1-(2-hydroxyethyl)-4-oxo-1,4-dihydroquinoline-3-carboxylic acid] the IC50 was 300 nM.
In the case of `Cc1cc2c(cc1Cc1cccc(Cl)c1Cl)c(=O)c(C(=O)O)cn2CCO` [Example 4-15, 6-(2,3-Dichlorobenzyl)-7-methyl-1-(2-hydroxyethyl)-4-oxo-1,4-dihydroquinoline-3-carboxylic acid], the IC50 is reported as 31 nM.
Work on `CC(C)Oc1cc(Cc2cccc(Cl)c2F)cc2c(=O)c(C(=O)O)cn([C@@H](C)CO)c12` [Example 4-16, (S)-6-(3-Chloro-2-fluorobenzyl)-1-(2-hydroxy-1-methylethyl)-8-isopropyloxy-4-oxo-1,4-dihydroquinoline-3-carboxylic acid] yielded an IC50 of 7.1 nM.
`CC[C@@H](CO)n1cc(C(=O)O)c(=O)c2cc(Cc3cccc(Cl)c3F)cc(OC(C)C)c21` [Example 4-17, (S)-6-(3-Chloro-2-fluorobenzyl)-1-[1-(hydroxymethyl)propyl]-8-isopropyloxy-4-oxo-1,4-dihydroquinoline-3-carboxylic acid] was tested, and the IC50 was 3.1 nM.

Reference: patent publication US8232401B2 (Japan Tobacco Inc., priority 2002, dated 2012)
